Results on 71 compounds are retold here after PubChem BioAssay AID2754 (The Scripps Research Institute Molecular Screening Center, 2010).

Activity calls are given as the source filed them. No rule for the calls is given here. Where only a bound is given, the exact number is not on record here.

This experiment has as its target VIM-2 metallo-beta-lactamase (Pseudomonas aeruginosa) (UniProt Q932Y6). Kind of experiment: inhibition of VIM-2 substrate hydrolysis – biochemical, epi-absorbance, common IMP-1/VIM-2 hits, dose response (AID 2754). The settings on record: purified VIM-2 enzyme.

Regarding `CN1C(=O)c2cccc3c(N)ccc(c23)C1=O`, the IC50 was 7.17 µM.

As for `CC(C)(C)c1ccc(-c2c(C(=O)O)c(C(=O)O)c3n2CSC3)cc1`, the IC50 result was “inactive”.

In the case of `CCOC(=O)C1CCCN(c2ccc([N+](=O)[O-])c3nonc23)C1` (stereo unspecified), the IC50 entry was “inactive”.

Consider `CC(C)n1cc(/C=C/c2cc[n+](C)cc2)c2ccccc21`, for which the IC50 entry was “inactive”.

For the compound `COc1ccc(-c2occ(C(=O)O)c2C(=O)O)cc1`, the IC50 entry was “inactive”.

In the case of `COc1cc(/C=C2/SC(=S)N(Cc3ccccc3)C2=O)cc(OC)c1O`, the IC50 is > 59.6 µM (inactive).

For the compound `CCN1/C(=C/C=C/c2oc3ccc4ccccc4c3[n+]2CC)Oc2ccc3ccccc3c21`, the IC50 was > 59.6 µM (inactive).

For `O/C=c1\ccc2cccc3nc(C(F)(F)F)nc1c23`, the half-maximal inhibitory concentration (IC50) was 8.76 µM.

With `N=C1/C(=C\c2coc3ccccc3c2=O)C(=O)N=C2SC=CN12`, the IC50 entry is “inactive”.

Take `Cc1ccc2[nH]cc(/C=C/c3cc[n+](C)cc3)c2c1`: the IC50 result is “inactive”.

For the compound `Cc1ccc(Cn2c(C(C)Nc3nc(-c4ccc(C)cc4)cs3)nc3cc(Cl)c(Cl)cc32)cc1` (stereo unspecified), the IC50 result is “inactive”.

Consider `CN1C(=O)/C(=C\c2ccc(N(C)C)cc2)OC1=S`, for which the IC50 was > 59.6 µM (inactive).

Turning to `CCOc1ccc(/C=C2\CCCc3c2nc2ccccc2c3C(=O)O)cc1OC`, the IC50 result is “inactive”.

As for `COc1ccc(-c2cc(=O)oc3c(C)c(OCC(=O)NCCCn4ccnc4)ccc23)cc1`, the IC50 result is “inactive”.

Turning to `CCN(CC)c1ccc2c(-c3ccc(S(=O)(=O)O)cc3S(=O)(=O)[O-])c3ccc(=[N+](CC)CC)cc-3oc2c1`, the IC50 is > 59.6 µM (inactive).

As for `COc1ccc(/C=C2\CCCc3c2nc2ccccc2c3C(=O)O)cc1OC`, the IC50 entry was “inactive”.

Regarding `Cc1n[nH]c(C)c1N1C(=O)c2cccc3c(N4CCCCCC4)ccc(c23)C1=O`, the IC50 result was “inactive”.

Turning to `CNc1ccc2c3c(cccc13)C(=O)N(C)C2=O`, the IC50 was 3.06 µM.

With `CCC(=C/c1sc2ccc3ccccc3c2[n+]1C)/C=C1\Sc2ccc3ccccc3c2N1C`, the IC50 is > 59.6 µM (inactive).

For the compound `CCOC(=O)c1c2c3c(cccc3n(C)c1=O)C(=O)c1ccccc1-2`, the IC50 entry was “inactive”.

As to `CCN(CC)c1ccc2cc(C(=O)NCc3ccc(F)cc3)c(=N)oc2c1`, the IC50 was > 59.6 µM (inactive).

On to `O=C1c2ccccc2-c2onc3ccc(NCCCn4ccnc4)c1c23`, for which the IC50 was 1.72 µM.

`CC(=O)Oc1ccc2c(c1)Oc1cc(OC(C)=O)ccc1C21OC(=O)c2ccccc21`: the IC50 entry is “inactive”.

As for `COCCCNc1c2c3c(cccc3[nH]c1=O)C(=O)c1ccccc1-2`, the IC50 was 1.84 µM.

As to `CN(C)/C=C1\C=C2C(=O)c3ccccc3N2C1=O`, the half-maximal inhibitory concentration (IC50) is 0.894 µM.

Take `Cc1nn(-c2ccccc2)c(Cl)c1/C=C(\CC(=O)O)c1nc2ccccc2s1`: the IC50 was 9.26 µM.

As to `O=C(Nc1ccc(C(F)(F)F)cc1)c1ccc(NC(=O)C2CCCO2)cc1` (stereo unspecified), the IC50 was > 59.6 µM (inactive).

For the compound `O=c1ccc2c(-c3ccccc3)c3ccc(O)cc3oc-2c1`, the 50% inhibitory concentration (IC50) is 0.374 µM.

With `COc1cc(OC)c(-c2c3cc(O)c(=O)cc-3oc3cc(O)c(O)cc23)cc1OC`, the 50% inhibitory concentration (IC50) is 5.11 µM.

In the case of `CCCCCCn1c(=O)[nH]c2nc3cc(N)ccc3nc2c1=O`, the IC50 entry is “inactive”.

Consider `Nc1cccc(N2C(=O)c3cccc4c(N)ccc(c34)C2=O)c1`, for which the IC50 result is “inactive”.

In the case of `CCCN1C(=O)c2cccc3c(N4CCCCC4)ccc(c23)C1=O`, the IC50 is > 59.6 µM (inactive).

As for `COc1ccc(/C=C2/SC(c3ccc(C)cc3)=NC2=O)cc1OC`, the IC50 was > 59.6 µM (inactive).

As for `O=C1CCN2C=Nc3cccc4ccc1c2c34`, the IC50 is 9.22 µM.

Take `CN1CCN(C2=CC3=CC(=C(C#N)C#N)CCC3CC2)CC1` (stereo unspecified): the IC50 is 3 µM.

As to `CCN(CC)C1=CC2=CC(=C(C#N)C#N)CCC2CC1` (stereo unspecified), the IC50 is 2.4 µM.

For `CCOc1cc2c(cc1/C=C/c1noc(C)c1[N+](=O)[O-])OC(C)C2` (stereo unspecified), the IC50 is > 59.6 µM (inactive).

Take `CCOc1ccc(-c2cc(C(=O)NCCCn3ccnc3)c3cc(Br)ccc3n2)cc1`: the IC50 was > 59.6 µM (inactive).

With `COC(=O)c1sccc1NC(=O)c1ccc(C#N)cc1`, the IC50 was > 59.6 µM (inactive).

For the compound `O=C(Nc1ccc2oc(-c3ccccc3F)nc2c1)c1ccc([N+](=O)[O-])o1`, the IC50 was > 59.6 µM (inactive).

Consider `COc1ccc2c(Cl)c(C(=O)NCCCn3ccnc3)sc2c1Cl`, for which the IC50 is > 59.6 µM (inactive).

As for `CCN(CC)c1ccc2cc(C=O)c(=O)oc2c1`, the IC50 entry is “inactive”.

Turning to `O=P(O)(O)c1cc(-c2ccccc2)oc1-c1ccccc1`, the IC50 result was “inactive”.

`Cc1nn(C)c(C)c1N1C(=O)c2cccc3c(N)ccc(c23)C1=O`: the IC50 was 8.99 µM.

`COCCCn1c(=NC(=O)c2ccccc2)c(C#N)cc2c(=O)n3cccc(C)c3nc21`: the IC50 was > 59.6 µM (inactive).

Take `Cn1cc(/C=C(\C(=O)O)C(C(=O)O)=C2CCCCC2)c2ccccc21`: the IC50 entry was “inactive”.

In the case of `CC(C)C(CCN1C(=O)c2ccccc2C1=O)c1ccco1` (stereo unspecified), the IC50 entry was “inactive”.

Turning to `CCc1cc(=O)oc2cc(C)c(CN3CCCC3)c(O)c12`, the 50% inhibitory concentration (IC50) was 6.96 µM.

`O=c1cc(C(F)(F)F)c2cc3c4c(c2o1)CCCN4CCC3`: the IC50 result was “inactive”.

For the compound `COc1ccccc1N1N=C(c2ccc([N+](=O)[O-])cc2)CC1c1ccccc1` (stereo unspecified), the IC50 is > 59.6 µM (inactive).

Turning to `COc1ccccc1-c1csc(-n2ncc(C#N)c2N)n1`, the IC50 was > 59.6 µM (inactive).

As for `CCCCC(Sc1nc(N)c(NC(=O)c2ccco2)c(=O)[nH]1)C(=O)O` (stereo unspecified), the IC50 was > 59.6 µM (inactive).

As to `CCN(CC)c1ccc(/C=C/C(=O)c2ccc(Br)cc2)cc1`, the IC50 is 8.45 µM.

With `N#CC(C#N)=C1C=C2C=C(N3CCCCCC3)CCC2CC1` (stereo unspecified), the IC50 is 2.51 µM.

Turning to `CCN1CCN(C2=CC3=CC(=C(C#N)C#N)CCC3CC2)CC1` (stereo unspecified), the IC50 is 3.7 µM.

Regarding `CCN(CC)c1ccc2cc(-c3nc4ccccc4[nH]3)c(=O)oc2c1`, the IC50 is 2.73 µM.

For the compound `CCn1c(=S)sc2c(=O)n(CC(=O)Nc3ccccc3C(F)(F)F)c(C)nc21`, the IC50 was > 59.6 µM (inactive).

For `Nc1ccc2c3c(cccc13)C(=O)N(c1ccccc1)C2=O`, the IC50 result is “inactive”.

In the case of `CCCCn1c(=O)[nH]c2nc3cc(N)ccc3nc2c1=O`, the IC50 result is “inactive”.

On to `CN(/N=C/c1ccc(-c2ccc([N+](=O)[O-])cc2)o1)c1ccccc1`, for which the IC50 was > 59.6 µM (inactive).

As for `O=C(CCN1C(=O)/C(=C/c2ccc(Cl)cc2)SC1=S)NCCCn1ccnc1`, the IC50 is > 59.6 µM (inactive).

As to `CC(=O)Nc1ccc(N2C(=O)c3cccc4c(O)ccc(c34)C2=O)cc1`, the IC50 entry is “inactive”.

Turning to `Nc1ccc(-c2c3ccc(=O)cc-3oc3cc(O)ccc23)cc1C(=O)O`, the IC50 is 4.47 µM.

Consider `Cc1cccc(N2C(=O)c3cccc4c(N)ccc(c34)C2=O)c1`, for which the IC50 entry was “inactive”.

For the compound `O=C1c2cccc3c(O)ccc(c23)C(=O)N1Cc1ccco1`, the IC50 result was “inactive”.

For the compound `O=[N+]([O-])c1ccc(N2CCCCCC2)c2nonc12`, the IC50 entry was “inactive”.

On to `O=C1/C(=C\c2cc(Cl)c(O)c(Cl)c2)SC(=S)N1Cc1ccccc1`, for which the IC50 entry is “inactive”.

As to `N#CC(C#N)=C1C=C2C=C(N3CCCCC3)CCC2CC1` (stereo unspecified), the IC50 was 2.33 µM.

With `CCCCN(C)C1=CC2=CC(=C(C#N)C#N)CCC2CC1` (stereo unspecified), the IC50 is 4.07 µM.

On to `N#CC(C#N)=C1C=C2C=C(N3CCOCC3)CCC2CC1` (stereo unspecified), for which the IC50 was 2.74 µM.

As to `O=C1c2cccc3c(O)ccc(c23)C(=O)N1c1ccc(Cl)cc1`, the IC50 result was “inactive”.
